# pIC50: −log10 of the molar value.
# Assays:
# [1] = molecular target: PD-1/PD-L1 (Homo sapiens, UniProt Q9NZQ7); assay: PD-1/PD-L1 biochemical protein-protein interaction assay (ALPHA); format: binding; conditions: Table 1a; 5 nM His tagged PD-L1, 5 nM biotinylated PD-1, 2 hours at 25° C.; read-out: ALPHA-LISA IC50
# Procedure: Compounds were tested in protein-protein interaction assay to determine if they can specifically block the interaction between the extracellular domains of PD-1/PD-L1. Binding of the protein pairs is measured using a bead based amplified luminescent proximity homogeneous assay (ALPHA) platform. Binding of each protein pair results in proximity of the donor and acceptor beads which leads to an increase in ALPHA signal. Assays are performed in 50 mM Tris (pH 7.4), 0.0015% Triton X-100, 0.1% BSA. Final protein concentration in the assays were 5 nM (His tagged PD-L1), 5 nM (biotinylated PD-1), 10 μg/ml ALPHA assay acceptor beads, 10 μg/ml ALPHA assay donor beads. After an assay reaction time of 2 hours at 25° C., binding was measured. The specificity of the binding was determined by testing the compounds in an assay with an irrelevant protein that is both His tagged and biotinylated. The final protein concentration used in the assay was 5 nM, 10 μg/ml ALPHA assay acceptor beads, 10 μg/ml ALPHA assay donor beads. After an assay reaction time of 2 hours at 25° C., binding was measured. IC50 values were calculated from the fit of the dose-response curves to a four-parameter equation.
# [2] = across the 27 clinical trials analyzed (Tie Y et al., 2016); cited from earlier work
# Chain of PD-1/PD-L1 (Q9NZQ7 19-238 limits assumed): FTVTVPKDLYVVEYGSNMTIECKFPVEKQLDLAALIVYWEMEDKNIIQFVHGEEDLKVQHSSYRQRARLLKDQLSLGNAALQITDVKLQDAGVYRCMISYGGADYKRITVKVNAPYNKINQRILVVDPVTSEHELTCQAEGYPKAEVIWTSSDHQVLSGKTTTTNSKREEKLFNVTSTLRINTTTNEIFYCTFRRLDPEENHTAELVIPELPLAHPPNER
pIC50 [1],Compound,objective response rate (ORR) [2] [%]
6.70,"N#Cc1cccc(COc2cc(OCc3cccn(-c4ccc5c(c4)OCCO5)c3=O)c(Cl)cc2CN[C@H](CO)C(=O)O)c1 [Compound 202, (5-chloro-2-((3-cyanobenzyl)oxy)-4-((1-(2,3-dihydrobenzo[b][1,4]dioxin-6-yl)-2-oxo-1,2-dihydropyridin-3-yl)methoxy)benzyl)-D-serine]",–
–,"Opdivo: Opdivo® (Nivolumab), given as example of PD-L1/PD-1 antagonist therapy validated in clinical trials",26

# — patent US12624022B2, “Heterocyclic immunomodulators as PDL1 checkpoint inhibitor” (Janssen Sciences Ireland Unlimited Company, priority 2019, dated 2026)
